Measured values from patent US4031211A, “Adriamycin esters, their preparation and use” (priority 1975, dated 1977).
Like-named read-outs stand apart in the source and are kept apart here.

Columns and labels:
L 1210 leukemia = experiment: Antitumor effect on L 1210 leukemia in mice
Procedure: (§1) The compounds according to the invention were tested on several in vitro systems and experimental mouse tumors, in comparison with adriamycin.

solid sarcoma 180 = conditions: Table 2, i.v. per 5 days
Procedure: as §1

Ascites sarcoma 180 = experiment: Antitumor effect on ascites sarcoma 180 in mice; conditions: for LTS (long term survivors, > 60 days) / TC (median survival time as compared to untreated controls) / TOX (mice which showed toxic lesions at the autopsy): Table 1
Procedure: as §1

Gross leukemia = experiment: Antitumor effect on Gross leukemia in mice; conditions: for TC (median survival time as compared to untreated controls) / TOX (mice which showed toxic lesions at the autopsy): Table 1
Procedure: as §1

[1] = test system: experimental mouse tumors; experiment: Antitumor/therapeutic activity and toxicity in experimental mouse tumors, overall statements; type: in vivo
[2] = Table 1, first experiment, ip, day 1, 0.2 mg./kg.
[3] = Table 1, first experiment, ip, day 1, 1 mg./kg.
[4] = Table 1, first experiment, ip, day 1, 5 mg./kg.
[5] = Table 1, first experiment, ip, day 1, 10 mg./kg.
[6] = Table 1, second experiment, ip, day 1, 10 mg./kg.
[7] = Table 1, second experiment, ip, day 1, 12 mg./kg.
[8] = Table 1, second experiment, ip, day 1, 15 mg./kg.
[9] = Table 4, i.p. on day 1, 10 mg./kg.
[10] = Table 4, i.p. on day 1, 2 mg./kg.
[11] = Table 4, i.p. on day 1, 4 mg./kg.
[12] = Table 4, i.p. on day 1, 8 mg./kg.
[13] = Table 5, second experiment, iv, days 1,2,3, 3.5 mg./kg.

## COc1cccc2c1C(=O)c1c(O)c3c(c(O)c1C2=O)C[C@@](O)(C(=O)CO)C[C@@H]3O[C@H]1C[C@H](N)[C@H](O)[C@H](C)O1 [Adriamycin]
L 1210 leukemia; [2]
  TC (median survival time as compared to untreated controls): 111%
L 1210 leukemia; [3]
  TC (median survival time as compared to untreated controls): 133%
L 1210 leukemia; [4]
  TC (median survival time as compared to untreated controls): 139%
L 1210 leukemia; [5]
  TC (median survival time as compared to untreated controls): 150%
  TOX (mice which showed toxic lesions at the autopsy): 3/10
L 1210 leukemia; [6]
  LTS (long term survivors, > 60 days): 1/10
  TC (median survival time as compared to untreated controls): 139%
  TOX (mice which showed toxic lesions at the autopsy): 1/10
L 1210 leukemia; [7]
  TC (median survival time as compared to untreated controls): 167%
  TOX (mice which showed toxic lesions at the autopsy): 2/10
L 1210 leukemia; [8]
  TC (median survival time as compared to untreated controls): 100%
  TOX (mice which showed toxic lesions at the autopsy): 6/10
L 1210 leukemia; Table 3, ip, day 1, 2.5 mg./kg.
  TC: 122%
L 1210 leukemia; Table 3, ip, day 1, 5 mg./kg.
  TC: 155%
L 1210 leukemia; Table 3, ip, day 1, 10 mg./kg.
  LTS: 2/9
  TC: 233%
  TOX: 2/9
L 1210 leukemia; Table 4, i.p. on day 1, 2.5 mg./kg.
  TC: 122%
L 1210 leukemia; Table 4, i.p. on day 1, 5 mg./kg.
  TC: 155%
L 1210 leukemia; [9]
  LTS: 2/9
  TC: 233%
  TOX: 2/9
L 1210 leukemia; Table 5, ip, day 1, 2.5 mg./kg.
  TC: 122%
L 1210 leukemia; Table 5, ip, day 1, 5 mg./kg.
  TC: 155%
L 1210 leukemia; Table 5, ip, day 1, 10 mg./kg.
  LTS: 2/9
  TC: 233%
  TOX: 2/9
Solid sarcoma 180; 2.5 mg./kg.
  % tumor growth at day 11: 42%
Solid sarcoma 180; 3 mg./kg.
  % tumor growth at day 11: 33%
Ascites sarcoma 180; ip, day 1, 1 mg./kg.
  LTS (long term survivors, > 60 days): 3/10
  TC (median survival time as compared to untreated controls): 243%
  TOX (mice which showed toxic lesions at the autopsy): 0/10
Ascites sarcoma 180; ip, day 1, 5 mg./kg.
  LTS (long term survivors, > 60 days): 3/10
  TC (median survival time as compared to untreated controls): 150%
  TOX (mice which showed toxic lesions at the autopsy): 0/10
Ascites sarcoma 180; Table 3, ip, day 1, 2 mg./kg.
  LTS: 1/10
  TC: 203%
Ascites sarcoma 180; Table 3, ip, day 1, 4 mg./kg.
  LTS: 2/10
  TC: 242%
Ascites sarcoma 180; Table 3, ip, day 1, 8 mg./kg.
  LTS: 2/10
  TC: 127%
  TOX: 8/10
Ascites sarcoma 180; [10]
  LTS: 4/10
  TC: 271%
Ascites sarcoma 180; [11]
  LTS: 5/10
  TC: 493%
  TOX: 1/10
Ascites sarcoma 180; [12]
  LTS: 3/10
  TC: 317%
  TOX: 4/10
Ascites sarcoma 180; Table 5, ip, day 1, 2 mg./kg.
  LTS: 4/10
  TC: 271%
Ascites sarcoma 180; Table 5, ip, day 1, 4 mg./kg.
  LTS: 5/10
  TC: 493%
  TOX: 1/10
Ascites sarcoma 180; Table 5, ip, day 1, 8 mg./kg.
  LTS: 3/10
  TC: 317%
  TOX: 4/10
Gross leukemia; iv, days 1,2,3, 3.5 mg./kg.
  TC (median survival time as compared to untreated controls): 143%
  TOX (mice which showed toxic lesions at the autopsy): 1/10
Gross leukemia; iv, days 1,2,3, 4.5 mg./kg.
  TC (median survival time as compared to untreated controls): 171%
Gross leukemia; iv, days 1,2,3, 6 mg./kg.
  TOX (mice which showed toxic lesions at the autopsy): 4/10
Gross leukemia; Table 5, first experiment, iv, days 1,2,3, 3.5 mg./kg.
  TC: 157%
Gross leukemia; Table 5, first experiment, iv, days 1,2,3, 4.5 mg./kg.
  TC: 178%
Gross leukemia; [13]
  TC: 143%
  TOX: 1/10
Gross leukemia; Table 5, second experiment, iv, days 1,2,3, 4.5 mg./kg.
  TC: 171%

## CCCCCC(=O)OCC(=O)OCC(=O)C1(O)Cc2c(O)c3c(c(O)c2C(OC2CC(N)C(O)C(C)O2)C1)C(=O)c1c(OC)cccc1C3=O.Cl (stereo not shown) [adriamycin-14-0-hexanoyl glycolate, Adriamycin-14-0-Hexanoyl Glycolate Hydrochloride]
L 1210 leukemia; [10]
  TC: 133%
L 1210 leukemia; [11]
  TC: 144%
L 1210 leukemia; [12]
  LTS: 1/9
  TC: 155%
Ascites sarcoma 180; [10]
  LTS: 1/10
  TC: 250%
Ascites sarcoma 180; [11]
  LTS: 5/10
  TC: 493%
Ascites sarcoma 180; [12]
  LTS: 3/10
  TC: 346%
Ascites sarcoma 180; Table 4, i.p. on day 1, 16 mg./kg.
  TC: 128%
[1]
  toxicity compared with adriamycin: less toxic
[1]; tumor not given
  activity compared with adriamycin: as active as adriamycin

## CCCCCC(=O)SCC(=O)OCC(=O)C1(O)Cc2c(O)c3c(c(O)c2C(OC2CC(N)C(O)C(C)O2)C1)C(=O)c1c(OC)cccc1C3=O.Cl (stereo not shown) [adriamycin-14-0-hexanoyl thioglycolate, Adriamycin-14-0-Hexanoyl Thioglycolate Hydrochloride]
L 1210 leukemia
  antitumor activity compared with adriamycin: marked anti-tumor effect, slightly lower than that of adriamycin
L 1210 leukemia; Table 3, ip, day 1, 4 mg./kg.
  TC: 133%
L 1210 leukemia; Table 3, ip, day 1, 8 mg./kg.
  TC: 155%
L 1210 leukemia; Table 3, ip, day 1, 16 mg./kg.
  LTS: 2/9
  TC: 170%
Ascites sarcoma 180
  antitumor effect compared with adriamycin: marked anti-tumor effect, slightly lower than that of adriamycin
Ascites sarcoma 180; Table 3, ip, day 1, 2 mg./kg.
  LTS: 1/10
  TC: 153%
  TOX: 1/10
Ascites sarcoma 180; Table 3, ip, day 1, 4 mg./kg.
  LTS: 2/10
  TC: 196%
  TOX: 1/10
Ascites sarcoma 180; Table 3, ip, day 1, 8 mg./kg.
  LTS: 2/10
  TC: 177%
Ascites sarcoma 180; Table 3, ip, day 1, 16 mg./kg.
  TC: 188%
  TOX: 6/10
[1]
  toxicity compared with adriamycin: less toxic

## CCCCCCCCCCCCCCCCCC(=O)OCC(=O)OCC(=O)C1(O)Cc2c(O)c3c(c(O)c2C(OC2CC(N)C(O)C(C)O2)C1)C(=O)c1c(OC)cccc1C3=O.Cl (stereo not shown) [adriamycin-14-0-stearoyl glycolate, Adriamycin-14-0-Stearoyl Glycolate Hydrochloride]
L 1210 leukemia
  antitumor activity compared with adriamycin: as active as adriamycin
  toxicity compared with adriamycin: less toxic
L 1210 leukemia; [2]
  TC (median survival time as compared to untreated controls): 100%
L 1210 leukemia; [3]
  TC (median survival time as compared to untreated controls): 133%
  TOX (mice which showed toxic lesions at the autopsy): 1/10
L 1210 leukemia; [4]
  TC (median survival time as compared to untreated controls): 133%
L 1210 leukemia; [5]
  TC (median survival time as compared to untreated controls): 139%
L 1210 leukemia; [6]
  TC (median survival time as compared to untreated controls): 128%
L 1210 leukemia; [7]
  TC (median survival time as compared to untreated controls): 150%
L 1210 leukemia; [8]
  TC (median survival time as compared to untreated controls): 150%
Solid sarcoma 180; 2.5 mg./kg.
  % tumor growth at day 11: 58%
Solid sarcoma 180; 3 mg./kg.
  % tumor growth at day 11: 58%
Solid sarcoma 180; 3.5 mg./kg.
  % tumor growth at day 11: 52%
Solid sarcoma 180; 4 mg./kg.
  % tumor growth at day 11: 37%
Ascites sarcoma 180
  antitumor effect compared with adriamycin: not significantly different from that of adriamycin
Ascites sarcoma 180; ip, day 1, 0.3 mg./kg.
  LTS (long term survivors, > 60 days): 1/10
  TC (median survival time as compared to untreated controls): 119%
Ascites sarcoma 180; ip, day 1, 1.6 mg./kg.
  LTS (long term survivors, > 60 days): 2/10
  TC (median survival time as compared to untreated controls): 222%
  TOX (mice which showed toxic lesions at the autopsy): 1/10
Ascites sarcoma 180; ip, day 1, 7.8 mg./kg.
  LTS (long term survivors, > 60 days): 1/10
  TC (median survival time as compared to untreated controls): 187%
  TOX (mice which showed toxic lesions at the autopsy): 1/10
Gross leukemia
  antitumor activity compared with adriamycin: as active as adriamycin
  toxicity compared with adriamycin: less toxic
Gross leukemia; iv, days 1,2,3, 4.5 mg./kg.
  TC (median survival time as compared to untreated controls): 143%
  TOX (mice which showed toxic lesions at the autopsy): 1/10
Gross leukemia; iv, days 1,2,3, 6 mg./kg.
  TC (median survival time as compared to untreated controls): 186%
Gross leukemia; iv, days 1,2,3, 7.5 mg./kg.
  TC (median survival time as compared to untreated controls): 186%
Gross leukemia; iv, days 1,2,3, 9 mg./kg.
  TC (median survival time as compared to untreated controls): 207%
